Experiments:
[1] = test system: retinal vasculature in OIR mouse model; experiment: Morphometric assessment of retinal vascular density (CD31 staining), OIR mouse model; type: in vivo, C57BL/6J mice; details: OIR mice, P17; DMSO 88, normoxic 154
Protocol: (§1) Retinal NV was induced in newborn mice as described previously. Briefly, P7 mice were exposed with their nursing mother, for 5 days [between P7 and P12] to hyperoxic conditions, by incubating them in an airtight chamber [PROOX 110 chamber O2 controller; Biospherix Ltd., Redfield, N.Y.] ventilated by a mixture of O2 and air to a final oxygen fraction of 75±2%. These incubation conditions induced vaso-obliteration and subsequent cessation of vascular development in the capillary beds of the central retina. At P12, the mice were allowed to recover in normal room air conditions and maintained for another 5 days [till P17], the day in which peak disease occurs. A condition of relative hypoxia resulted between P12 and P17, and extensive retinal NV developed in 100% of the mice. […]
Retinas were harvested at various time points and fixed with 4% paraformaldehyde (PFA) and methanol followed by blocking in 50% FBS/20% normal goat serum for 1 hour at room temperature. […] Quantitation of PECAM/CD-31 immunostaining was processed morphometrically using Metamorph™ imaging software [Universal Imaging, Sunnyvale, Calif.] to determine the area of positive staining for YC-1-treatedt vs. control group. […] All results were expressed as meant S.E.M. Differences were considered statistically significant at **P<0.01.

[2] = test system: hRMVECs cocultured with rMC-1 cells; experiment: Cell proliferation in a co-culture system model (MTT); type: cell-based, human; details: rMC-1 cells treated with YC-1 100 μM for 24 hours, normoxic and hypoxic conditions
Protocol: To test the influence of Móller cells [rMC-1] on the hRMVECs proliferation, rMC-1 [2×10^5 cells cm—2] were plated in a transwell insert [Millipore, Billerica, Mass.] with […] pores and allowed to adhere overnight in 150 μL of CS—C complete medium [Cell Systems, Kirkland, Wash.], supplemented with 10% FBS and incubated at 37° C. under normoxic [5% CO2/95% air]. The rMC-1 cells were then incubated under normoxic [5% CO2/95% air], or hypoxic conditions. To establish hypoxic conditions, cells were placed in airtight chambers [BioSpherix, Redfield, N.Y.] that were flushed with a gas mixture of 5% CO2 and 95% N2. Oxygen concentrations within these chambers were maintained at 1.2% using Pro-Ox Model 110 O2 regulators. After treating the r-MC-1 cells with YC-1 [100 μM] for 24 hours, the insert was then placed into 24 well-plates, in which hRMVECs were plated at 5×10^3 cells cm^−2 and allowed to adhere overnight [FIG. 7B]. hRMVECs proliferation was evaluated using 3, […]-2,5-diphenyl tetrazolium bromide [MTT] colorimetric assay [Mosmann,1983], at 24, 48, 72, and 96 hours after coculture. During the last 4 hours of each day, […] of 5 mg/ml MTT [Millipore, Billerica, Mass.] was added in each well. Formed Formazan crystals were dissolved in […] DMSO and optical density was recorded at 492 nm. Experiments were performed on at least three independent occasions. […]

[3] = test system: preretinal NV in OIR mouse model; experiment: Quantification of preretinal NV (H&E sections), OIR mouse model; type: in vivo, C57BL/6J mice; details: OIR mice, double intravitreal injection YC-1 100 μM, P17, n=8; DMSO 61
Protocol: as §1
Quantification of preretinal NV on P17 mice was performed as previously described. Briefly, 6-μm-thick serial sections were stained with hematoxylin and Eosin (H&E), then examined and scored in masked fashion for the presence of all nuclei extending beyond the ILM into the vitreous from the retina, by using light microscopy (Zeiss Axiovert 135, Thornwood, N.Y.). Efficacy of treatment was calculated as the percentage of the average number of nuclei/section in the eyes of YC-1-treated mice vs. DMSO-treated retinas. A minimum of 10 sections at least 40 μm apart were evaluated and counted per eye and then averaged. […]

[4] = test system: hRMVECs cocultured with rMC-1 cells; experiment: Cell migration in a co-culture system model (transwell); type: cell-based, human; details: rMC-1 cells treated with YC-1 100 μM, normoxic and hypoxic conditions
Protocol: Migration assay of hRMVECs was carried out using the transwell insert with […] pore size. The inserts were coated with Extracellular matrix [ECM] [Millipore, Billerica, Mass.] and airdry up. Chemotaxis was induced by the control r-MClcells or the r-MC1 cells that were treated with YC-1 [100 μM], which were situated in the lower compartment. hRMVECs suspension [final concentration, 5×10^4 cells/well] was added to the upper compartment [FIG. 7B]. After incubated for 24 hours, the filters were washed and then fixed and stained with crystal violet [0.5% crystal violet and 20% methanol] for 30 min at room temperature. The filters were washed with distilled water, and the cells on the upper surface of the inserts were wiped with a cotton swab. The number of cells per field that migrated to the lower surface of the filters was determined microscopically. Five randomly chosen fields were counted per filter. Data were presented as a number of migrated cells [**P<0.01].

SMILES: OCc1ccc(-c2nn(Cc3ccccc3)c3ccccc23)o1 [YC-1, 3-(5′-hydroxymethyl-2′-furyl)-1-benzylindazole]
- mean vascular density (endothelial cells per reticle square, CD31) [1]: 148±2
- proliferation of hRMVECs in coculture [2]: significantly suppressed
- average number of neovascular nuclei (pre-retinal, anterior to ILM) [3]: 11±1.8
- rMC-1 cells-induced hRMVECs migration [4]: significantly attenuated
